Several values for one entry are separate records, joined by “and”; a condition that tells them apart may be missing. Equal entries are not always repeated. Activity calls are given as the source filed them. No rule for the calls is given here.

This assay concerns the target Phospholipase D1 (Homo sapiens) (UniProt Q13393). Nature of the assay: PLD1-selective inhibitors in cells (AID 743388). The note with it: Calu-1 cells, PMA-stimulated, PtdBuOH-d9 by mass spectrometry, 30 min; at 20 µM; stronger effect = higher value.

Sequence of Phospholipase D1 (Homo sapiens) (Q13393 whole entry, looked up): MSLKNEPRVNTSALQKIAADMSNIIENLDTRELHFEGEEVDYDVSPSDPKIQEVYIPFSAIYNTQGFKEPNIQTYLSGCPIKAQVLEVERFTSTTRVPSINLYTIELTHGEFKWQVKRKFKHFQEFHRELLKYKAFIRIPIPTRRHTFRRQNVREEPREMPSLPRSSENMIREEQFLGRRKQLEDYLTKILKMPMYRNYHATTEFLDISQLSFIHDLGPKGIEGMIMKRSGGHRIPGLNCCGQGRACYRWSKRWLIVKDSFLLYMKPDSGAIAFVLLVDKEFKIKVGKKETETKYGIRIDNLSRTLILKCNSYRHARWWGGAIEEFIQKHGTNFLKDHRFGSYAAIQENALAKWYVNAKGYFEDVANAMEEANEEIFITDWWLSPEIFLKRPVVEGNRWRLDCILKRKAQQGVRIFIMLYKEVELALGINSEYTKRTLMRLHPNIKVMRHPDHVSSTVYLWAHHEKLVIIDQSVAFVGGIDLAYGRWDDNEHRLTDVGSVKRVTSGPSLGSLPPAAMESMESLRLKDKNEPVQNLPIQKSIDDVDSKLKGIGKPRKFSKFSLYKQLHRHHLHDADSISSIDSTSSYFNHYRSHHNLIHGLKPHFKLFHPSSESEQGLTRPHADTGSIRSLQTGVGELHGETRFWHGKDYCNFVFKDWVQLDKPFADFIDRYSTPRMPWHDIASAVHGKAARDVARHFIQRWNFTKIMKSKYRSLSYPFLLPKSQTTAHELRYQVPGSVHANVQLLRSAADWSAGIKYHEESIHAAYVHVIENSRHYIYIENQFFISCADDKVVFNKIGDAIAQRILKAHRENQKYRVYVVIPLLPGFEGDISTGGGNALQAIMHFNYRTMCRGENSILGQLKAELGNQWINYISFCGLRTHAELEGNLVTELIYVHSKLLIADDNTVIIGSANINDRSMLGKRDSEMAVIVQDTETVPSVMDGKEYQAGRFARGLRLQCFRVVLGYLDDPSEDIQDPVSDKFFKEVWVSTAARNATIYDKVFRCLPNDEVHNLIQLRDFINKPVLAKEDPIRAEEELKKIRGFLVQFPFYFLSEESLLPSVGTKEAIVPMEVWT

Regarding `O=C(NCCN1CCC2(CC1)C(=O)NCN2c1cccnc1)c1ccc(F)c(F)c1`, the inhibition is 16% (inactive).

Regarding `O=C(NCCN1CCC2(CC1)C(=O)NCN2Cc1cccnc1)c1cccc2cccnc12`, the inhibition is 4% (inactive).

For `Cc1cc(Br)cnc1C(=O)NCCN1CCC2(CC1)C(=O)NCN2Cc1cccnc1`, the inhibition was 0% (inactive).

With `O=C(NCCN1CCC2(CC1)C(=O)NCN2c1cncc(F)c1)c1cc(F)c(F)c(F)c1`, the inhibition is 17% (inactive).

In the case of `O=C(NCCN1CCC2(CC1)C(=O)NCN2C(=O)c1cccc(F)c1)c1ccc2ccccc2c1`, the inhibition is 50%.

As for `O=C(NCCN1CCC2(CC1)C(=O)NCN2Cc1cccnc1)c1c[nH]c2ccccc12`, the inhibition is 25% (inactive).

As to `O=C(NCCN1CCC2(CC1)C(=O)NCN2Cc1ccccn1)c1ccc2ccccc2c1`, the inhibition is 88%.

For `O=C(NCCN1CCC2(CC1)C(=O)NCN2Cc1cccnc1)c1ccc2ccccc2c1`, the inhibition is 37% (inactive) and 38% (inactive).

`O=C(NCCN1CCC2(CC1)C(=O)NCN2c1cncc(F)c1)c1ccc(Br)cc1`: the inhibition was 12% (inactive).

Regarding `O=C(NCCN1CCC2(CC1)C(=O)NCN2Cc1cccnc1)c1cc2ccccc2o1`, the inhibition was 14% (inactive).

Consider `O=C(NCCN1CCC2(CC1)C(=O)NCN2c1cccnc1)c1cc(F)c(F)c(F)c1`, for which the inhibition was 6% (inactive).

As for `O=C(NCCN1CCC2(CC1)C(=O)NCN2Cc1cccnc1)c1nc(-c2ccc(F)cc2)no1`, the inhibition is 30% (inactive).

As for `O=C(NCCN1CCC2(CC1)C(=O)NCN2Cc1cccnc1)c1cc2cccnc2[nH]1`, the inhibition was 16% (inactive).

On to `O=C(NCCN1CCC2(CC1)C(=O)NCN2Cc1cccc(OC(F)(F)F)c1)c1ccc2ccccc2c1`, for which the inhibition was 10% (inactive).

For `O=C(NCCN1CCC2(CC1)C(=O)NCN2Cc1cccnc1)c1cc2ccccc2[nH]1`, the inhibition is 64%.

As for `O=C(NCCN1CCC2(CC1)C(=O)NCN2c1cccnc1)c1ccc2ccccc2c1`, the inhibition is 7% (inactive).

Turning to `O=C(NCCN1CCC2(CC1)C(=O)NCN2C(=O)C1CC1)c1ccc2ccccc2c1`, the inhibition was 83%.

In the case of `Cc1ccc(S(=O)(=O)NCCN2CCC3(CC2)C(=O)NCN3Cc2cccnc2)cc1`, the inhibition is 0% (inactive).

Take `COc1cc(C(=O)NCCN2CCC3(CC2)C(=O)NCN3Cc2cccnc2)cc(OC)c1OC`: the inhibition is 0% (inactive).

For `O=C(NCCN1CCC2(CC1)C(=O)NCN2Cc1cccnc1)c1ccc2c(c1)C(=O)NC2=O`, the inhibition was 13% (inactive).

In the case of `O=C(NCCN1CCC2(CC1)C(=O)NCN2CC1CC1)c1ccc2ccccc2c1`, the inhibition is 43% (inactive).

Regarding `O=C(NCCN1CCC2(CC1)C(=O)NCN2Cc1cccnc1)c1ccc(Cl)cc1F`, the inhibition was 0% (inactive).

In the case of `Cc1nc2sc(C(=O)NCCN3CCC4(CC3)C(=O)NCN4Cc3cccnc3)c(N)c2c(C)c1C`, the inhibition was 9% (inactive).

`O=C(NCCN1CCC2(CC1)C(=O)NCN2c1ccc(C(F)(F)F)nc1)c1ccc2ccccc2c1`: the inhibition is 2% (inactive).

Consider `O=C(NCCN1CCC2(CC1)C(=O)NCN2c1cncc(F)c1)c1cc2cc(F)ccc2[nH]1`, for which the inhibition is 26% (inactive).

On to `O=C(NCCN1CCC2(CC1)C(=O)NCN2c1ccnc(F)c1)c1ccc2ccccc2c1`, for which the inhibition was 3% (inactive).

Consider `O=C(NCCN1CCC2(CC1)C(=O)NCN2Cc1cccnc1)c1ccc(F)cc1Cl`, for which the inhibition was 0% (inactive).

As for `O=C(NCCN1CCC2(CC1)C(=O)NCN2Cc1cccnc1)c1ccc2ccccc2c1Br`, the inhibition was 10% (inactive).

On to `O=C(NCCN1CCC2(CC1)C(=O)NCN2c1cccnc1)c1ccc(F)cc1`, for which the inhibition is 7% (inactive).

As for `O=C(NCCN1CCC2(CC1)C(=O)NCN2Cc1cccnc1)c1ccc(F)cc1F`, the inhibition was 7% (inactive).

For `O=C(NCCN1CCC2(CC1)C(=O)NCN2Cc1ccncc1)c1ccc2ccccc2c1`, the inhibition was 53%.

Regarding `O=C(NCCN1CCC2(CC1)C(=O)NCN2Cc1cccnc1)c1ccc(Br)cc1`, the inhibition was 9% (inactive).

Turning to `O=C(NCCN1CCC2(CC1)C(=O)NCN2Cc1ccccc1Cl)c1ccc2ccccc2c1`, the inhibition is 91%.

As for `O=C(NCCN1CCC2(CC1)C(=O)NCN2c1cncc(Br)c1)c1ccc2ccccc2c1`, the inhibition was 9% (inactive).

For `O=C(NCCN1CCC2(CC1)C(=O)NCN2Cc1cccc2ccccc12)c1ccc2ccccc2c1`, the inhibition is 94%.

With `O=C(NCCN1CCC2(CC1)C(=O)NCN2Cc1cccnc1)c1cc(F)c(F)c(F)c1`, the inhibition is 0% (inactive).

In the case of `O=C(NCCN1CCC2(CC1)C(=O)NCN2Cc1cccnc1)c1cc2cc(F)ccc2[nH]1`, the inhibition is 4% (inactive).

Regarding `O=C(NCCN1CCC2(CC1)C(=O)NCN2C(=O)c1ccccc1)c1ccc2ccccc2c1`, the inhibition was 45% (inactive).

In the case of `O=C(NCCN1CCC2(CC1)C(=O)NCN2Cc1cccnc1)c1cccs1`, the inhibition is 3% (inactive).

`O=C(NCCN1CCC2(CC1)C(=O)NCN2c1cccnc1)c1ccc(Br)cc1`: the inhibition is 0% (inactive).

As to `O=C(NCCN1CCC2(CC1)C(=O)NCN2Cc1cccnc1)c1ccc(Cl)cc1Cl`, the inhibition is 0% (inactive).

For `O=C(NCCN1CCC2(CC1)C(=O)NCN2Cc1cccc(Cl)c1)c1ccc2ccccc2c1`, the inhibition is 89%.

As to `O=C(NCCN1CCC2(CC1)C(=O)NCN2c1cncc(F)c1)c1ccc2ccccc2c1`, the inhibition was 14% (inactive).

For `O=C(NCCN1C=CC2(CC1)C(=O)NCN2Cc1cccnc1)c1cccc2nsnc12` (stereo not drawn), the inhibition was 9% (inactive).

`O=C(NCCN1CCC2(CC1)C(=O)NCN2Cc1cccnc1)c1c(Cl)cncc1Cl`: the inhibition was 20% (inactive).

As to `O=C(NCCN1CCC2(CC1)C(=O)NCN2Cc1ccccc1Br)c1ccc2ccccc2c1`, the inhibition is 96%.

With `O=C(NCCN1CCC2(CC1)C(=O)NCN2Cc1cccnc1)c1cccc(Cl)c1`, the inhibition was 0% (inactive).

For `O=C(NCCN1CCC2(CC1)C(=O)NCN2c1cncc(F)c1)c1ccc(F)c(F)c1`, the inhibition was 17% (inactive).

Take `O=C(NCCN1CCC2(CC1)C(=O)NCN2Cc1ccc(Cl)cc1)c1ccc2ccccc2c1`: the inhibition is 64%.

With `O=C(NCCN1CCC2(CC1)C(=O)NCN2Cc1cccnc1)c1ccc(C(F)(F)F)cc1`, the inhibition was 0% (inactive).

On to `O=C(NCCN1CCC2(CC1)C(=O)NCN2Cc1cccnc1)c1ccc(F)c(F)c1`, for which the inhibition is 3% (inactive).

For the compound `Cc1cc(N2CNC(=O)C23CCN(CCNC(=O)c2ccc4ccccc4c2)CC3)ccn1`, the inhibition is 7% (inactive).

`O=C(NCCN1CCC2(CC1)C(=O)NCN2Cc1cccnc1)[C@@H]1C[C@H]1c1ccccc1`: the inhibition is 23% (inactive).

As to `O=C(NCCN1CCC2(CC1)C(=O)NCN2Cc1cccnc1)c1sc2ncccc2c1-n1cccc1`, the inhibition was 29% (inactive).

On to `O=C(NCCN1CCC2(CC1)C(=O)NCN2Cc1ccccc1)c1ccc2ccccc2c1`, for which the inhibition is 72%.

As to `Cn1c(C(=O)NCCN2CCC3(CC2)C(=O)NCN3Cc2cccnc2)cc2ccccc21`, the inhibition was 10% (inactive).

For `O=C(NCCN1CCC2(CC1)C(=O)NCN2Cc1cccnc1)c1cccc(F)c1`, the inhibition was 2% (inactive).

`O=C(NCCN1CCC2(CC1)C(=O)NCN2Cc1cccnc1)c1nccc2ccccc12`: the inhibition is 0% (inactive).

Take `O=C(NCCN1CCC2(CC1)C(=O)NCN2Cc1cccnc1)c1cccc(C(F)(F)F)c1`: the inhibition was 0% (inactive).

Turning to `O=C(NCCN1CCC2(CC1)C(=O)NCN2Cc1cccnc1)c1ccccc1F`, the inhibition was 0% (inactive).

As to `Cc1cc(C)c2cc(C(=O)NCCN3CCC4(CC3)C(=O)NCN4Cc3cccnc3)[nH]c2c1`, the inhibition was 13% (inactive).

`O=C(NCCN1CCC2(CC1)C(=O)NCN2c1ccnc(Cl)c1)c1ccc2ccccc2c1`: the inhibition is 0% (inactive).

On to `COc1cccc(C(=O)N2CNC(=O)C23CCN(CCNC(=O)c2ccc4ccccc4c2)CC3)c1`, for which the inhibition is 50%.

As to `O=C(NCCN1CCC2(CC1)C(=O)NCN2Cc1cccnc1)c1ccc2cc(F)ccc2c1`, the inhibition is 9% (inactive).

For `O=C(NCCN1CCC2(CC1)C(=O)NCN2Cc1cccnc1)c1cc(F)cc(F)c1`, the inhibition was 0% (inactive).

In the case of `O=C(NCCN1CCC2(CC1)C(=O)NCN2Cc1cccnc1)c1ccc2ccccc2n1`, the inhibition is 11% (inactive).

Turning to `O=C(NCCN1CCC2(CC1)C(=O)NCN2Cc1cccnc1)c1ccnc2ccccc12`, the inhibition was 13% (inactive).

As for `O=C(NCCN1CCC2(CC1)C(=O)NCN2C(=O)C1CCC1)c1ccc2ccccc2c1`, the inhibition was 80%.

As to `O=C(NCCN1CCC2(CC1)C(=O)NCN2Cc1cccnc1)c1c(F)ccc(Cl)c1F`, the inhibition is 0% (inactive).

Take `O=C(NCCN1CCC2(CC1)C(=O)NCN2c1cncc(F)c1)c1ccc(F)cc1`: the inhibition is 25% (inactive).

In the case of `O=C(NCCN1CCC2(CC1)C(=O)NCN2c1cccnc1)c1cc2cc(F)ccc2[nH]1`, the inhibition is 9% (inactive).

Consider `Cn1cc(C(=O)NCCN2CCC3(CC2)C(=O)NCN3Cc2cccnc2)c2ccccc21`, for which the inhibition was 5% (inactive).

In the case of `O=C(NCCN1CCC2(CC1)C(=O)NCN2Cc1cccnc1)c1ccc(Cl)c(Cl)c1`, the inhibition is 13% (inactive).

`O=C(NCCN1CCC2(CC1)C(=O)NCN2Cc1cccnc1)c1ccc(F)cc1`: the inhibition is 3% (inactive).

With `O=C(NCCN1CCC2(CC1)C(=O)NCN2Cc1ccccc1F)c1ccc2ccccc2c1`, the inhibition is 77% and 87%.

On to `O=C(NCCN1CCC2(CC1)NCNC2=O)c1ccc2ccccc2c1`, for which the inhibition was 7% (inactive).

Turning to `O=C(NCCN1CCC2(CC1)C(=O)NCN2Cc1cccnc1)c1ccc(SC(F)(F)F)cc1`, the inhibition is 5% (inactive).

For the compound `O=C(NCCN1CCC2(CC1)C(=O)NCN2Cc1cccnc1)c1ccc(F)cc1C(F)(F)F`, the inhibition was 0% (inactive).

Broadly, the inhibition is the change of the read-out against control, counted positive when it falls.

The values are drawn from PubChem BioAssay AID743388 (Vanderbilt Specialized Chemistry Center, 2014).
